Our source for the IC50 values is patent US10954216B2, “BMP-signal-inhibiting compound” (RIKEN, priority 2016, dated 2021).

One may read the IC50 as the concentration that inhibits the measured activity by half.

For this assay, the system named is BMP signal in MDA-231-D-BREFluc/Rluc cells. Description: BMP signal inhibitory effect (AlphaScreen SureFire SMAD1 p-Ser463/465, BMP-6 stimulation). Format: cell-based. Here is the method:
BMP Signal Inhibitory Effect
A BMP signal inhibitory activity of a compound of the present invention was evaluated according to the following method.
MDA-231-D-BREFluc/Rluc cells prepared according to the method described in Y. Katsuno et al., Oncogene, 27, 6322 (2008) were incubated at 37° C. for 2 hours together with test compounds, and BMP-6 (commercially available from R&D System, 507-BM-020) was then added thereto, and the mixture was additionally incubated at 37° C. for 30 minutes. A Lysis Buffer and Acceptor mix of AlphaScreen SureFire SMAD1 (p-Ser463/465) assay kit (commercially available from Perkin Elmer, TGRSM1S10K) were sequentially added thereto, the mixture was incubated at room temperature for 2 hours, and AlphaScreen Protein A kit (commercially available from Perkin Elmer, 6760617) was then added thereto, and standard AlphaScreen settings of Alpha Technology—compatible plate reader (commercially available from Perkin Elmer, EnSpire) was used for measurement.
A general note: Bead proximity is the source of the signal in Alpha formats.

Where [1] appears, read: BMP-6 stimulated MDA-231-D-BREFluc/Rluc cells, phospho-SMAD1 AlphaScreen, read-out: IC50.

Where two headings read alike, the source gives them in different places.

`CCn1cc(-c2ccnc(Nc3ccc(-c4cccnc4)cc3)n2)c(-c2cccnc2)n1` [Example 133, 4-(1-ethyl-3-(pyridin-3-yl)-1H-pyrazol-4-yl)-N-(4-(pyridin-3-yl)phenyl)pyrimidin-2-amine]: under setting [1], the IC50 came to 18.7 nM.

For `CCn1cc(-c2ccnc(Nc3ccc4c(c3)CN(CC3CCCO3)CC4)n2)c(-c2cccnc2)n1` (centres unmarked) [Example 88, N-(4-(1-Ethyl-3-(pyridin-3-yl)-1H-pyrazol-4-yl)pyrimidin-2-yl)-2-((tetrahydrofuran-2-yl)methyl)-1,2,3,4-tetrahydroisoquinolin-7-amine], the half-inhibitory concentration (IC50) under setting [1] was determined as 5.5 nM.

Take `CCn1cc(-c2ccnc(Nc3ccc(-c4cn5ccccc5n4)cc3)n2)c(-c2cccnc2)n1` [Example 14, 4-(1-ethyl-3-(pyridin-3-yl)-1H-pyrazol-4-yl)-N-(4-(imidazo[1,2-a]pyridin-2-yl)phenyl)pyrimidin-2-amine]: the IC50 under setting [1] is 36.4 nM.

Turning to `CCn1cc(-c2ccnc(Nc3ccc(C(=O)N4CCN(C5CCCCC5)CC4)cc3)n2)c(-c2cccnc2)n1` [Example 120, (4-Cyclohexylpiperazin-1-yl) (4-((4-(1-ethyl-3-(pyridin-3-yl)-1H-pyrazol-4-yl)pyrimidin-2-yl)amino)phenyl) methanone], the IC50 under setting [1] worked out at 6.1 nM.

Take `CCn1cc(-c2ccnc(Nc3ccc(C4CCN(CCOC)C4)cc3)n2)c(-c2cccnc2)n1` (centres unmarked) [Example 50, 4-(1-ethyl-3-(pyridin-3-yl)-1H-pyrazol-4-yl)-N-(4-(1-(2-methoxyethyl)pyrrolidin-3-yl)phenyl)pyrimidin-2-amine]: the half-maximal inhibitory concentration (IC50) under setting [1] amounted to 6.3 nM.

Consider `CCn1cc(-c2ccnc(Nc3ccc4c(c3)CCN(CC(N)=O)C4)n2)c(-c2cccnc2)n1` [Example 90, 2-(6-((4-(1-Ethyl-3-(pyridin-3-yl)-1H-pyrazol-4-yl)pyrimidin-2-yl)amino)-3,4-dihydroisoquinolin-2(1H)-yl)acetamide], for which the IC50 under setting [1] stood at 21.6 nM.

As to `CCn1cc(-c2ccnc(Nc3ccc(N4CCN5CCC4CC5)cc3)n2)c(-c2cccnc2)n1` [Example 69, N-(4-(1,4-diazabicyclo[3.2.2]nonan-4-yl)phenyl)-4-(1-ethyl-3-(pyridin-3-yl)-1H-pyrazol-4-yl)pyrimidin-2-amine], under setting [1], the 50% inhibitory concentration (IC50) came to 13 nM.

With `FC(F)(F)OCCn1cc(-c2ccnc(Nc3ccc(N4CCNCC4)cc3)n2)c(-c2cccnc2)n1` [Example 72, N-(4-(Piperazin-1-yl)phenyl)-4-(3-(pyridin-3-yl)-1-(2-(trifluoromethoxy)ethyl)-1H-pyrazol-4-yl)pyrimidin-2-amine], the 50% inhibitory concentration (IC50) under setting [1] came out at 13.4 nM.

Consider `CCn1cc(-c2ccnc(Nc3ccc(-n4cnc(C)n4)cc3)n2)c(-c2cccnc2)n1` [Example 26, 4-(1-ethyl-3-(pyridin-3-yl)-1H-pyrazol-4-yl)-N-(4-(3-methyl-1H-1,2,4-triazol-1-yl)phenyl)pyrimidin-2-amine], for which the concentration for half-maximal inhibition (IC50) under setting [1] worked out at 18.5 nM.

Regarding `CCn1cc(-c2ccnc(Nc3cnn(C4CCN(CC(C)(C)O)CC4)c3)n2)c(-c2cccnc2)n1` [Example 54, 1-(4-(4-((4-(1-Ethyl-3-(pyridin-3-yl)-1H-pyrazol-4-yl)pyrimidin-2-yl)amino)-1H-pyrazol-1-yl)piperidin-1-yl)-2-methylpropan-2-ol], under setting [1], the IC50 is 8.2 nM.

For the compound `CC(C)(O)Cn1cc(-c2ccnc(Nc3ccc4c(c3)CCN(C3COC3)C4)n2)c(-c2cccnc2)n1` [Example 131, 2-Methyl-1-(4-(2-((2-(oxetan-3-yl)-1,2,3,4-tetrahydroisoquinolin-6-yl)amino)pyrimidin-4-yl)-3-(pyridin-3-yl)-1H-pyrazol-1-yl)propan-2-ol], the IC50 under setting [1] amounted to 16.7 nM.

Consider `CCn1cc(-c2ccnc(Nc3ccc(C(=O)N(C)C4CC5CCC(C4)N5C(C)C)cc3)n2)c(-c2cccnc2)n1` (centres unmarked) [Example 5, 4-((4-(1-Ethyl-3-(pyridin-3-yl)-1H-pyrazol-4-yl)pyrimidin-2-yl)amino)-N-(8-isopropyl-8-azabicyclo[3.2.1]octan-3-yl)-N-methylbenzamide], for which half-maximal inhibition (IC50) required 16.9 nM.

`CCn1cc(-c2ccnc(Nc3ccc(C(=O)N(C)C4CCN(C)CC4)cc3)n2)c(-c2cccnc2)n1` [Example 4, 4-((4-(1-ethyl-3-(pyridin-3-yl)-1H-pyrazol-4-yl)pyrimidin-2-yl)amino)-N-methyl-N-(1-methylpiperidin-4-yl)benzamide]: the half-maximal inhibitory concentration (IC50) under setting [1] worked out at 16.3 nM.

As for `CCn1cc(-c2ccnc(Nc3ccc(CCN4CCNCC4)cc3)n2)c(-c2cccnc2)n1` [Example 159, 4-(1-Ethyl-3-(pyridin-3-yl)-1H-pyrazol-4-yl)-N-(4-(2-(piperazin-1-yl)ethyl)phenyl)-pyrimidin-2-amine], the half-maximal inhibitory concentration (IC50) under setting [1] is 15.2 nM.

For the compound `FC(F)(F)Cn1cc(-c2ccnc(Nc3ccc(N4CCNCC4)cc3)n2)c(-c2cccnc2)n1` [Example 136, N-(4-(piperazin-1-yl)phenyl)-4-(3-(pyridin-3-yl)-1-(2,2,2-trifluoroethyl)-1H-pyrazol-4-yl)pyrimidin-2-amine], under setting [1], the half-inhibitory concentration (IC50) was 13.3 nM.

As to `CCn1cc(-c2ccnc(Nc3cccc(OCCN(C)C)c3)n2)c(-c2cccnc2)n1` [Example 24, N-(3-(2-(dimethylamino)ethoxy)phenyl)-4-(1-ethyl-3-(pyridin-3-yl)-1H-pyrazol-4-yl)pyrimidin-2-amine], under setting [1], the half-inhibitory concentration (IC50) turned out to be 5.3 nM.

Turning to `CCn1cc(-c2ccnc(Nc3ccc(C(=O)N4CC5CCC(C4)N5C4CCCC4)cc3)n2)c(-c2cccnc2)n1` [Example 118, (8-Cyclopentyl-3,8-diazabicyclo [3.2.1]octan-3-yl) (4-((4-(1-ethyl-3-(pyridin-3-yl)-1H-pyrazol-4-yl)pyrimidin-2-yl)amino)phenyl) methanone], half-maximal inhibition (IC50) was put at 8.6 nM.

With `CCn1cc(-c2ccnc(Nc3ccc(-c4cnn(CCOC)c4)cc3)n2)c(-c2cccnc2)n1` [Example 28, 4-(1-Ethyl-3-(pyridin-3-yl)-1H-pyrazol-4-yl)-N-(4-(1-(2-methoxyethyl)-1H-pyrazol-4-yl)phenyl)pyrimidin-2-amine], the IC50 under setting [1] amounted to 24.6 nM.

For `CC(C)N1CCN(C(=O)c2ccc(Nc3nccc(-c4cn(CCc5ccccc5)nc4-c4cccnc4)n3)cc2)CC1` [Example 123, (4-lsopropylpiperazin-1-yl) (4-((4-(1-phenethyl-3-(pyridin-3-yl)-1H-pyrazol-4-yl)pyrimidin-2-yl)amino)phenyl) methanone], the IC50 under setting [1] came out at 12.6 nM.

Turning to `CCn1cc(-c2ccnc(Nc3ccc(N4CCN(CC5(C)COC5)CC4)cc3)n2)c(-c2cccnc2)n1` [Example 98, 4-(1-ethyl-3-(pyridin-3-yl)-1H-pyrazol-4-yl)-N-(4-(4-((3-methyloxetan-3-yl)methyl)piperazin-1-yl)phenyl)pyrimidin-2-amine], the IC50 under setting [1] was 23.4 nM.

For the compound `CCn1cc(-c2ccnc(Nc3ccc(-n4cnc(N5CCN(C)CC5)n4)cc3)n2)c(-c2cccnc2)n1` [Example 180, 4-(1-ethyl-3-(pyridin-3-yl)-1H-pyrazol-4-yl)-N-(4-(3-(4-methylpiperazin-1-yl)-1H-1,2,4-triazol-1-yl)phenyl)pyrimidin-2-amine], the half-inhibitory concentration (IC50) under setting [1] was 9.1 nM.

Turning to `COCCN1CCN(c2ccc(Nc3nccc(-c4cn(C5CCOC5)nc4-c4cccnc4)n3)cc2)CC1` (centres unmarked) [Example 76, N-(4-(4-(2-methoxyethyl)piperazin-1-yl)phenyl)-4-(3-(pyridin-3-yl)-1-(tetrahydrofuran-3-yl)-1H-pyrazol-4-yl)pyrimidin-2-amine], the 50% inhibitory concentration (IC50) under setting [1] amounted to 46.1 nM.

As to `CCn1cc(-c2ccnc(Nc3ccc4c(c3)CCN(CC(O)COC)C4)n2)c(-c2cccnc2)n1` (centres unmarked) [Example 109, 1-(6-((4-(1-Ethyl-3-(pyridin-3-yl)-1H-pyrazol-4-yl)pyrimidin-2-yl)amino)-3,4-dihydroisoquinolin-2 (1H)-yl)-3-methoxypropan-2-ol], the 50% inhibitory concentration (IC50) under setting [1] was 5.7 nM.

In the case of `CCn1cc(-c2ccnc(Nc3ccc4c(c3)CCN(C3COC3)C4)n2)c(-c2cccnc2)n1` [Example 95, N-(4-(1-Ethyl-3-(pyridin-3-yl)-1H-pyrazol-4-yl)pyrimidin-2-yl)-2-(oxetan-3-yl)-1,2,3,4-tetrahydroisoquinolin-6-amine], the concentration for half-maximal inhibition (IC50) under setting [1] came out at 14.8 nM.

Regarding `CCn1cc(-c2ccnc(Nc3ccc4c(c3)CNC4)n2)c(-c2cccnc2)n1` [Example 73, N-(4-(1-ethyl-3-(pyridin-3-yl)-1H-pyrazol-4-yl)pyrimidin-2-yl)isoindolin-5-amine], the IC50 under setting [1] was 7.2 nM.

As to `CCn1cc(-c2ccnc(Nc3ccc(N4CCN(CCOCC(F)F)CC4)cc3)n2)c(-c2cccnc2)n1` [Example 51, N-(4-(4-(2-(2,2-difluoroethoxy)ethyl)piperazin-1-yl)phenyl)-4-(1-ethyl-3-(pyridin-3-yl)-1H-pyrazol-4-yl)pyrimidin-2-amine], the IC50 under setting [1] was 18.3 nM.

For the compound `COCCn1cc(-c2ccnc(Nc3ccc(OC4CN(CC(C)(C)O)C4)cc3)n2)c(-c2cccnc2)n1` [Example 107, 1-(3-(4-((4-(1-(2-Methoxyethyl)-3-(pyridin-3-yl)-1H-pyrazol-4-yl)pyrimidin-2-yl)amino)phenoxy)azetidin-1-yl)-2-methylpropan-2-ol], the IC50 under setting [1] was 24.4 nM.

With `CCn1cc(-c2ccnc(Nc3ccc(N4CCN(CC5COC5)CC4)cc3)n2)c(-c2cccnc2)n1` [Example 99, 4-(1-Ethyl-3-(pyridin-3-yl)-1H-pyrazol-4-yl)-N-(4-(4-(oxetan-3-ylmethyl)piperazin-1-yl)phenyl)pyrimidin-2-amine], under setting [1], the concentration for half-maximal inhibition (IC50) worked out at 20 nM.

Consider `CCn1cc(-c2ccnc(Nc3ccc(N4CCC(C)(N(C)C)CC4)cc3)n2)c(-c2cccnc2)n1` [Example 68, N-(4-(4-(Dimethylamino)-4-methylpiperidin-1-yl)phenyl)-4-(1-ethyl-3-(pyridin-3-yl)-1H-pyrazol-4-yl)pyrimidin-2-amine], for which, under setting [1], the IC50 is 6.8 nM.
